Where “and” joins values, the source holds several entries; their conditions need not be identical. Identical values can stand only once.
Test system: WM3248 melanoma cells, 486 antibodies
Assay: Reverse phase protein arrays (RPPA)
Format: cell-based, Human
Description: Pellets were snap frozen in liquid nitrogen and shipped to MD Anderson Cancer Center core RPPA facility for RPPA analysis (Table S5). Three biological replicates for each sample were generated.
Nomenclatures on the RPPA heatmaps: name_of_antibody.species_of_antibody.status_of_antibody. V - antibody validated; C - validation of antibody in progress; Q - antibody nonspecific; E – under evaluation; antibodies raised in M - mouse, G - goat, R - rabbit, or T - rat.

## CN(C)c1cccc(Nc2cc(-c3ccccc3)nc(C3CCNCC3)n2)c1 [ARN22089, N1,N1-dimethyl-N3-(6-phenyl-2-(piperidin-4-yl)pyrimidin-4-yl)benzene-1,3-diamine]
Norm_5 Average
  Caspase.8.cleaved.R.C normalized signal: 0.982
  Caveolin.1.R.V normalized signal: 0.855
  Cdc6.R.V normalized signal: 0.979
  Cdc42.R.C normalized signal: 1.009
  Chk1.M.C normalized signal: 0.909
  Chk2.M.V normalized signal: 0.853
  Chk2_pT68.R.C normalized signal: 1.060
  Claudin.7.R.V normalized signal: 0.926
  Collagen.VI.R.V normalized signal: 1.116
  Complex.II.Subunit.M.V normalized signal: 0.975
  Cox2.R.C normalized signal: 1.135
  Cox.IV.R.V normalized signal: 1.022
  CtIP.R.V normalized signal: 0.975
  Cyclin.B1.R.V normalized signal: 0.972
  Cyclin.D3.M.V normalized signal: 0.904
  Cyclin.E1.R.V normalized signal: 0.936
  DAPK1_pS308.M.C normalized signal: 1.256
  DDB.1.R.V normalized signal: 1.059
  DDR1_pY513.R.C normalized signal: 0.981
  DM.K9.Histone.H3.M.V normalized signal: 0.933
  DNA.Ligase.IV.R.C normalized signal: 1.034
  DNA_POLG.R.V normalized signal: 0.987
  c.Jun_pS73.R.V normalized signal: 0.785
  c.Met_pY1234_Y1235.R.V normalized signal: 1.005
  c.Myc.R.C normalized signal: 1.002
  cdc2_pY15.R.C normalized signal: 1.020
  cdc25C.R.V normalized signal: 0.901
Norm_5 replicates
  C.Raf.R.C normalized signal: 0.928 and 0.922 and 1.015
  C.Raf_pS338.R.V normalized signal: 1.100 and 1.059 and 1.133
  CA9.R.C normalized signal: 0.890 and 0.944 and 0.999
  CD2.M.C normalized signal: 0.910 and 0.933 and 1.035
  CD4.R.V normalized signal: 1.047 and 1.004 and 1.101
  CD5.M.C normalized signal: 0.985 and 1.051
  CD20.R.C normalized signal: 0.992 and 1.004 and 0.765
  CD26.R.V normalized signal: 0.918 and 1.107 and 0.927
  CD29.M.V normalized signal: 0.891 and 0.950 and 1.049
  CD31.M.V normalized signal: 0.904 and 0.900 and 1.048
  CD38.R.C normalized signal: 0.928
  CD44.R.C normalized signal: 0.917 and 1.058 and 0.855
  CD45.M.V normalized signal: 0.930 and 1.021
  CD49b.M.V normalized signal: 0.968 (2×) and 1.000
  CD68.M.C normalized signal: 0.960 and 0.996 and 0.977
  CD74.M.V normalized signal: 0.856 and 0.898 and 1.027
  CD134.R.V normalized signal: 0.925 and 0.944
  CD171.M.V normalized signal: 0.619 and 0.917 and 0.812
  CDK1_pT14.R.C normalized signal: 0.861 and 1.206
  CDK9.R.V normalized signal: 0.898 and 0.959 and 1.009
  CDKN2A.R.C normalized signal: 0.913 and 0.846 and 1.064
  CDT1.R.V normalized signal: 0.876 and 0.937
  CENP.A.R.V normalized signal: 0.837 and 1.027
  CHD1L.R.V normalized signal: 0.984 and 0.980 and 1.062
  CIITA.R.C normalized signal: 0.906 and 1.032 and 0.908
  COG3.R.V normalized signal: 1.065 and 1.046 and 1.027
  CRABP1.R.C normalized signal: 0.859 and 0.948
  CRABP2.R.V normalized signal: 0.835 and 0.922
  CREB_pS133.R.C normalized signal: 0.973 and 1.049
  CSK.R.C normalized signal: 0.899 and 0.615
  Calnexin.R.V normalized signal: 0.886 and 0.995 and 1.007
  Caspase.3.cleaved.R.C normalized signal: 1.021 and 1.056
  Caspase.7.cleaved..R.C normalized signal: 0.975 and 1.120
  Caspase.8.M.Q normalized signal: 0.995 and 1.011
  Caspase.8.cleaved.R.C normalized signal: 0.959 and 0.968 and 1.018
  Caveolin.1.R.V normalized signal: 0.695 and 1.083 and 0.788
  Cdc6.R.V normalized signal: 1.013 and 0.837
  Cdc42.R.C normalized signal: 0.983 and 0.959
  Chk1.M.C normalized signal: 0.847 and 0.901 and 0.979
  Chk1_pS296.R.V normalized signal: 1.011 and 0.821 and 1.014
  Chk1_pS345.R.C normalized signal: 1.085 and 0.937
  Chk2.M.V normalized signal: 0.877 and 0.935 and 0.746
  Chk2_pT68.R.C normalized signal: 1.018 and 1.050 and 1.112
  Claudin.7.R.V normalized signal: 0.960 and 0.997 and 0.822
  Collagen.VI.R.V normalized signal: 1.125 and 1.077 and 1.148
  Complex.II.Subunit.M.V normalized signal: 0.952 and 1.023
  Connexin.43.R.C normalized signal: 1.236 and 0.956
  Coup.TFII.R.C normalized signal: 1.082 and 1.017
  Cox2.R.C normalized signal: 1.108 and 1.155 and 1.142
  Cox.IV.R.V normalized signal: 1.004 and 1.021
  Creb.R.C normalized signal: 1.017
  CtIP.R.V normalized signal: 1.022 and 0.990 and 0.914
  Cyclin.B1.R.V normalized signal: 0.618 and 1.059 and 1.239
  Cyclin.D1.R.C normalized signal: 0.917 and 1.018
